# Data as given in patent US5444069A, “Imidazo-pyridine angiotensin II antagonists used to treat memory loss” (Warner-Lambert Company, priority 1994, dated 1995).
# Key:
# [1] = whole body autoradiography in rats; type: in vivo, rat
# Protocol: The iodination was initiated by addition of chloramine-T (30 μg, 132 nMol) that was diluted to a concentration of 0.05 M in the same buffer as above. After shaking at room temperature for one minute the reaction was quenched with sodium metabisulfite (10 mg). […] This labeled material was reconstituted in 5% aqueous dextrose containing 30 mg/mL of the disodium salt of unlabeled Example 12 and adjusted to pH 9 by addition of several μL of 1 mM NaOH.
# Male and female Sprague-Dawley rats (Charles River, Wilmington, average weight 281 g) were used in the autoradiography studies. Animals were on a fixed light cycle with unrestricted access to normal rat chow and water prior to the experiment. […] Animals were killed at 15 or 60 minutes postdose by halothane anesthesia and were rapidly frozen in acetone with dry ice. Carcasses were subsequently embedded in methylcellulose ice for whole-body sectioning and autoradiography. Autoradiograms were analyzed by computer assisted densitometry.
# Results of the autoradiographical experiments are summarized in Table X. A relative scale of radioactivity is assigned with background equal to 0 and the most dense reading (liver and intestines) equal to 10. […] Another site that is highly labeled is the ovarian follicle. It is the most highly labeled non-excretory organ. All other tissues show weaker radioactivity.
# [2] = system: angiotensin II receptors (AT1 and AT2), rat brain regions; assay: displacement of 125I-angiotensin II from receptor preparations of rat brain regions; type: binding; details: antagonist 10 μM
# Protocol: The concentration of all three antagonist compounds in these experiments is 1 μM (above the maximal effect concentration).
# [3] = target: T1, AT2 receptor (whole rat brain) (Rattus norvegicus, UniProt P35351); assay: angiotensin II receptor binding in whole rat brain (DTT protocol); details: whole rat brain; DTT included to eliminate AT1 binding; read-out: IC50 Values in whole Rat Brain Preparations
# T1 construct: IC50 Values in whole Rat Brain Preparations; from tissue; host or cells: whole rat brain
# T1 sequence (P35351 1-363): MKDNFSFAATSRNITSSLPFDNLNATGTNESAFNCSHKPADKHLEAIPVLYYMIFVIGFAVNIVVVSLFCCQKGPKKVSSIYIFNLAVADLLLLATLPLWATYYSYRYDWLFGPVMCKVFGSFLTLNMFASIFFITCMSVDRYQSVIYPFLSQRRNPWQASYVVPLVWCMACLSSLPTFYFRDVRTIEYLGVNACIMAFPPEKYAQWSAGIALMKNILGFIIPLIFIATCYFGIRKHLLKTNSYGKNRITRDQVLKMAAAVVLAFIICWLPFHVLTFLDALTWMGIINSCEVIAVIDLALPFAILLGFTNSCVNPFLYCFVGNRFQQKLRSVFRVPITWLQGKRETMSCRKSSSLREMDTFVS
# Excerpt: Since receptor-specific binding in whole brain is low and is a mixture of two subtypes, an alternative protocol (Bennett and Snyder, Eur. J. Pharmacol., 67, 11-25) was used. This method includes DTT and thereby eliminates binding at AT1 receptors, thus-allowing evaluation of AT2 receptor events.
# [4] = target: T2, AT2 receptor (rabbit uterus receptor preparations) (Oryctolagus cuniculus, UniProt G1T351); assay: displacement of 3H-angiotensin II from rabbit uterus receptor preparations; type: binding; details: read-out: IC50 Values in Rabbit Uterine Preparations
# T2 construct: cell membrane preparations derived from rabbit uterus and corpus luteum; from tissue; host or cells: rabbit uterus, cell membrane preparation
# T2 sequence (G1T351 1-363): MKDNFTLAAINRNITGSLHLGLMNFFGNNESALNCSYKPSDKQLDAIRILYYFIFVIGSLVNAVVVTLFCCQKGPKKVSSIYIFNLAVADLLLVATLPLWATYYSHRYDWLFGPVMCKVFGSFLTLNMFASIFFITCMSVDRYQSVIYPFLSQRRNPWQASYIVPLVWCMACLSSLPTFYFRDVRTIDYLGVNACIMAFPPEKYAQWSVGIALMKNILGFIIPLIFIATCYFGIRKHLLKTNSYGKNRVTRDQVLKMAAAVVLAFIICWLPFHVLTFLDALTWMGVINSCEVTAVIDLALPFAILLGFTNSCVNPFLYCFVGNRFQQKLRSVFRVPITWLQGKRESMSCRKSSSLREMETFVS
# Excerpt: AT2 receptors are known to exist in organs of the female reproductive system. […] More specifically, AT2 receptors are densely located on granulosa cells in atretic follicles of the ovary.
# [5] = system: angiotensin II receptors (AT1/AT2) of corpus luteum; assay: inhibition of 125I-angiotensin II binding, corpus luteum; parameters: species or system rabbit
# [6] = system: rat striatum acetylcholine (ACh); assay: effect on rat striatal acetylcholine (ACh) levels; type: in vivo; details: 0.5 h, ± SEM, vehicle 61.0 ± 2.33, * p < 0.05
# Protocol: ACh concentrations were determined as described below. Each
# Results were analyzed by a oneway
# [7] = system: angiotensin II receptors (AT1/AT2) of granulosa cell; details: 1 μM; 125I-angiotensin II; adapted from Pucell et al., Endocrinology 1991; cited from earlier work
# [8] = system: angiotensin II induced secretion of AVP; details: isolated rat explants; Schiavone et al., Hypertension 1991; cited from earlier work
# [9] = Barnes et al., Neuroreport 1991, cited from earlier work
# [10] = 30 mg/kg i.v. rat, scale 0-10, represents excretion
compound,measurement,setting,value
Cc1cc(Cn2cnc3c2C[C@@H](C(=O)O)N(C(=O)C(c2ccccc2)c2ccccc2)C3)cc([125I])c1O [^125 CI-Example 12],"Relative Radioactivity, Adrenal","[1]; 30 mg/kg i.v. rat, scale 0-10",3
same,"Relative Radioactivity, Blood","[1]; 30 mg/kg i.v. rat, scale 0-10",4
same,"Relative Radioactivity, Heart","[1]; 30 mg/kg i.v. rat, scale 0-10",3
same,"Relative Radioactivity, Kidney","[1]; 30 mg/kg i.v. rat, scale 0-10",4-8
same,"Relative Radioactivity, Lung","[1]; 30 mg/kg i.v. rat, scale 0-10",4
same,"Relative Radioactivity, Ovarian follicle","[1]; 30 mg/kg i.v. rat, scale 0-10",9
same,"Relative Radioactivity, Ovary (non-follicular)","[1]; 30 mg/kg i.v. rat, scale 0-10",3-5
same,"Relative Radioactivity, Salivary gland","[1]; 30 mg/kg i.v. rat, scale 0-10",6-7
same,"Relative Radioactivity, Thymus","[1]; 30 mg/kg i.v. rat, scale 0-10",3
same,"Relative Radioactivity, Uterus","[1]; 30 mg/kg i.v. rat, scale 0-10",2-3
same,"Relative Radioactivity, Bladder",[1]; [10],4-6
same,"Relative Radioactivity, Intestines",[1]; [10],10
same,"Relative Radioactivity, Liver",[1]; [10],10
same,"Relative Radioactivity, Testicle","[1]; 30 mg/kg i.v. rat, scale background 0 to most dense 10",1-2
"CNCC(=O)N[C@@H](CCCN=C(N)N)C(=O)N[C@H](C(=O)N[C@@H](Cc1ccc(O)cc1)C(=O)N[C@H](C(=O)N[C@@H](Cc1cnc[nH]1)C(=O)N1CCC[C@H]1C(=O)N[C@@H](C)C(=O)O)C(C)C)C(C)C [SAR, saralasin, reference compound]","125I-Angiotensin II Bound, Brain Stem","[2]; rat brain stem, total 2124",288 cpm
same,"125I-Angiotensin II Bound, Cerebellum","[2]; rat cerebellum, total 571",269 cpm
same,"125I-Angiotensin II Bound, Cortex","[2]; rat cortex, total 766",336 cpm
same,"125I-Angiotensin II Bound, Cortical Neurons","[2]; rat cortical neurons, total 2647",293 cpm
same,"125I-Angiotensin II Bound, Striatal Membrane","[2]; rat striatal membrane, total 2462",1295 cpm
"O=C(O)[C@@H]1Cc2c(ncn2Cc2ccccc2)CN1C(=O)C(c1ccccc1)c1ccccc1 [Example 8, (S)-(-)-5-(diphenylacetyl)-4,5,6,7-tetrahydro-1-(phenylmethyl)-1H-imidazo[4,5-c]pyridine-6-carboxylic acid]",IC50,[3],3800 nM
same,IC50,[4],74 nM
"CCCCc1nc(Cl)c(CO)n1Cc1ccc(-c2ccccc2-c2nn[nH]n2)cc1 [DUP 753, reference compound]","% Inhibition with 1 μM Antagonist, Corpus luteum","[5]; 1 μM, 125I-angiotensin II, data from Warner-Lambert Co.",97%
same,"displacement of 125I-angiotensin II, corpus luteum (in words)",[5]; Table IX,displaces nearly all of the radioligand
same,"ACh concentration, rat striatum",[6]; 30 mg/kg IP,67.5 ± 5.71 nM/g
same,"% Inhibition with 1 μM Antagonist, Granulosa cell",[7],3%
"Cc1cc(Cn2cnc3c2C[C@@H](C(=O)O)N(C(=O)C(c2ccc(F)cc2)c2ccc(F)cc2)C3)ccc1N(C)C [Example 5, (S)-(-)-5-[bis(4-fluorophenyl)acetyl)-1-[[4-(dimethylamino)-3-methyl-phenyl]methyl]-4,5,6,7-tetrahydro-1H-imidazo[4,5-c]pyridine-6-carboxylic acid]",IC50,[4],38 nM
"COc1ccc(Cn2cnc3c2C[C@@H](C(=O)O)N(C(=O)C(c2ccc(Cl)cc2)c2ccc(Cl)cc2)C3)cc1C [Example 10, (S)-(-)-5-[bis(4-chlorophenyl)acetyl]-4,5,6,7-tetrahydro-1-[(4-methoxy-3-methylphenyl)methyl]-1H-imidazo-[4,5-c]pyridine-6-carboxylic acid]",IC50,[4],120 nM
"O=C(CCCN1CCC(O)(c2ccc(Cl)cc2)CC1)c1ccc(F)cc1 [Haloperidol, haloperidol, reference compound]","ACh concentration, rat striatum",[6]; 2 mg/kg IP,36.9 ± 3.27 nM/g
Cc1cc(Cn2cnc3c2C[C@@H](C(=O)O)N(C(=O)C(c2ccccc2)c2ccccc2)C3)ccc1[N+](=O)[O-] [Example 7],IC50,[4],67 nM
"Cc1cccc(Cn2cnc3c2C[C@@H](C(=O)O)N(C(=O)C(c2ccccc2)c2ccccc2)C3)c1 [Example 16, (S)-(-)-5-(diphenylacetyl)-4,5,6,7-tetrahydro-1-[(3-methylphenyl)methyl]-1H-imidazo[4,5-c]pyridine-6-carboxylic acid]",IC50,[3],1600 nM
"CC(=O)Nc1ccc(Cn2cnc3c2C[C@@H](C(=O)O)N(C(=O)C(c2ccccc2)c2ccccc2)C3)cc1C [Example 11, (S)-(-)-[[4-(acetylamino)-3-methylphenyl]methyl]-5-(diphenylacetyl)-4,5,6,7-tetrahydro-1H-imidazo-[4,5-c]pyridine-6-carboxylic acid]",IC50,[4],150 nM
"Cc1cc(Cn2cnc3c2C[C@@H](C(=O)O)N(C(=O)C(c2ccccc2)c2ccccc2)C3)cc(I)c1O [Example 12, (S)-(-)-5-(diphenylacetyl)-1-[(4-hydroxy-3-iodo-5-methylphenyl)methyl]-4,5,6,7-tetrahydro-1H-imidazo[4,5-c]pyridine-6-carboxylic acid]",IC50,[3],570 nM
same,IC50,[4],25 nM
same,tissue distribution (in words),"[1]; rat, autoradiography",selectively distribute to the ovarian follicle
COc1ccc(Cn2cnc3c2C[C@@H](C(=O)O)N(C(=O)C2c4ccccc4-c4ccccc42)C3)cc1C [Example 6],IC50,[4],1200 nM
"O=C(O)[C@@H]1Cc2c(ncn2Cc2ccc(C(F)(F)F)cc2)CN1C(=O)C(c1ccccc1)c1ccccc1 [Example 15, (S)-(-)-5-(diphenylacetyl)-4,5,6,7-tetrahydro-1-[[4-(trifluoromethyl)-phenyl]methyl]-1H-imidazo[4,5-c]pyridine-6-carboxylic acid]",IC50,[3],780 nM
O=C(O)[C@@H]1Cc2c(ncn2CCC23CC4CC(CC(C4)C2)C3)CN1C(=O)C(c1ccccc1)c1ccccc1 [Example 4],IC50,[3],180 nM
same,IC50,[4],91 nM
"COc1ccc(Cn2cnc3c2C[C@@H](C(=O)O)N(C(=O)Cc2ccccc2)C3)cc1C [Example 9, (S)-(-)-4,5,6,7-tetrahydro-1-[(4-methoxy-3-methylphenyl)methyl]-5-(phenylacetyl)-1H-imidazo-[4,5-c]pyridine-6-carboxylic acid]",IC50,[4],95 nM
"Cc1cc(Cn2cnc3c2C[C@@H](C(=O)O)N(C(=O)C(c2ccccc2)c2ccccc2)C3)ccc1N [Example 2, (S)-(-)-1-[(4-amino-3-methylphenyl)-methyl]-5-(diphenylacetyl)-4,5,6,7-tetrahydro-1H-imidazo[4,5-c]pyridine-6-carboxylic acid]",IC50,[4],32 nM
same,antagonism of angiotensin II induced AVP secretion,[8],antagonizing the angiotensin II induced secretion of AVP
same,reversal of scopolamine-induced amnesia,[9],reverses scopalamine-induced amnesia
same,cognition enhancement,[9]; rodent behavioral models,does indeed possess cognition enhancing actions in rodent behavioral models
"COc1ccc(Cn2cnc3c2C[C@@H](C(=O)O)N(C(=O)C(c2ccccc2)c2ccccc2)C3)cc1C [Example 3, (S)-(-)-5-(diphenylacetyl)-4,5,6,7-tetrahydro-1-[(4-methoxy-3-methyl-phenyl)methyl]-1H-imidazo[4,5-c]pyridine-6-carboxylic acid]",IC50,[4],26 nM
